Publication PMC5923120, “Acylhydrazones as Antifungal Agents Targeting the Synthesis of Fungal Sphingolipids” (Antimicrobial Agents and Chemotherapy, 2018)
Where two headings read alike, the source gives them in different places.

Experiments:
[1] = Pharmacokinetic studies (plasma concentration); format: in vivo, mice
Description: For i.p. study, BHBM and D13 were dissolved in a mixture of cremophore-ethanol (1:1) to prepare a 10-mg/ml stock solution. The stock solution was diluted in PBS to obtain 200-μg/ml and 400-μg/ml solutions for i.p. administrations in C3H/HeN mice (n = 3). The compounds were administered to control (healthy) mice or immunocompromised mice infected with P. murina at doses of 0.8 mg/kg and 1.6 mg/kg via tail vein injection or intraperitoneal injection in a final volume of 100 μl. The mice were sacrificed and blood samples were collected predose and 0.5, 1, 2, 4, 8, 12, and 24 h after administration into K2EDTA-containing tubes. The samples were centrifuged immediately, and plasma was collected and stored at −80°C until bioanalysis. Plasma samples were extracted using methylene chloride.
Briefly, 50 μl of the plasma sample was taken into a glass vial, and 10 μl of internal standard N′-(3-bromobenzylidene)-4-hydroxybenzohydrazide was added. After the contents of the glass vial were mixed, 1 ml of methylene chloride was added to the vial and the samples were vortex mixed for 30 s, followed by centrifugation for 5 min. Eight hundred microliters of supernatant then was transferred to another tube and evaporated to dryness using a centrifugal evaporator. The residue was reconstituted in 100 μl acetonitrile-water (50:50) solution, mixed, and transferred to mass spectrometry vials. Separation was performed under isocratic reverse-phase chromatographic conditions using a Waters XBridge C18 column (3.5 μm; 2.1 by 100 mm) (Waters, Milford, MA), a Finnigan Surveyor MS pump (Thermo Fisher Scientific), and a Finnigan Micro AS autosampler (Thermo Fisher Scientific).
The mobile phase consisted of water-acetonitrile with 0.1% formic acid (50:50) run at a flow rate of 200 μl/min. Five-microliter aliquots then were analyzed using an LTQ-FT liquid chromatography-tandem mass spectrometer (LC-MS/MS) with the electrospray source in the positive ion mode (Thermo Fisher Scientific). For i.v. and p.o. administration, the formulation consisted of a 0.5-mg/ml solution of PEG 400-DMA (9:1). A volume of 1.21 mg of D13 was dissolved in 0.242 ml of […] (DMA) by vortexing and sonication, and then 2.178 ml of PEG440 was added with vortexing and sonication until a clear solution was obtained. For a 4-mg/ml solution of PEG 400-DMA (9:1), 2.13 mg of D13 was dissolved in 0.053 ml of DMA by vortexing and sonication, and then 0.479 ml of PEG 440 was added with vortexing and sonication until a clear solution was obtained. For i.v. and p.o. administration of BHBM, the formulation consisted of a 0.5-mg/ml solution of 5% DMSO and 5% solutol in water. A volume of 0.98 mg of BHBM was dissolved in 0.098 ml of DMSO with vortexing and sonication. […]

C. albicans = assay: Mouse model of invasive candidiasis; format: in vivo, mice; conditions: oral gavage 20 mg/kg/day, i.v. infection with 10^4 cells of C. albicans, after 21 days
C. neoformans = assay: In vitro killing assay; conditions: minimum concentration that kills 100% of C. neoformans cells in 48 h
Description: C. neoformans cells from a culture grown overnight were washed in PBS and resuspended in YNB buffered with HEPES at pH 7.4. The cells were counted, and 2 × 10^4 cells were incubated with different concentrations of the drugs in a final volume of 10 ml with a final concentration of 0.5% DMSO. The tubes were then incubated at 37°C with 5% CO2 on a rotary shaker at 200 rpm. Aliquots were taken at the time points indicated and diluted, and 100-µl portions were plated onto YPD plates.

Candida albicans 3022 = assay: Synergistic assay (FIC), CA Flu-R; format: cell-based
Description: (§1) Synergistic activity was assayed by calculating the fractional inhibitory index (FIC). Briefly, in a 96-well plate, drug A (D13) was serially diluted from 16 to 0.015 μg/ml (11 dilutions), whereas drug B (either fluconazole, amphotericin B, caspofungin, itraconazole, or voriconazole) was serially diluted from 12 to 0.19 μg/ml for fluconazole, 5 to 0.078 μg/ml for amphotericin B, or 8 to 0.007 μg/ml for caspofungin, itraconazole, or voriconazole (seven dilutions). The FIC was defined as (MIC combined/MIC drug A alone) + (MIC combined/MIC drug B alone). Synergism was categorized with the following scale: strongly synergistic effect, FIC of <0.5; synergistic effect, FIC of <1; additive effect, FIC of 1; no effect, FIC between 1 and 2; antagonistic effect, FIC of >2.

[2] = mouse, with NADPH
Description: (§2) To test for metabolic stability, 40 μl of 10 mM NADPH solution was added to each well of a 96-well plate. The final concentration of NADPH was 1 mM. The mixture was prewarmed at 37°C for 5 min. The negative-control samples were prepared by replacing NADPH solutions with 40 μl of ultrapure H2O. The negative control was used to exclude the misleading factor that resulted from the instability of the chemical itself. Samples with NADPH were prepared in duplicate. Negative controls were prepared in singlet. The reaction was started with the addition of 4 μl of 200 μM control compound or test compound solutions. […] An aliquot of 90 μl of the supernatant was mixed with 90 μl of ultrapure H2O and then used for LC-MS/MS analysis.

[3] = test system: Cryptococcus neoformans H99; assay: Synergistic assay (FIC), CN; format: cell-based
Description: as §1

[4] = test system: Aspergillus fumigatus 293; assay: Synergistic assay (FIC), AF; format: cell-based
Description: as §1

P. murina = assay: Murine model of pneumocystosis; format: in vivo, mice; conditions: i.p. 7.2 mg/kg/day
Description: C3H/HeN mice ordered from the National Cancer Institute were infected with P. murina pneumonia through exposure to mice with a fulminant P. murina infection (seed mice). These mice are immune suppressed by the addition of dexamethasone at 4 mg/liter to the drinking water. Sulfuric acid at 1 ml/liter was also added to the drinking water for disinfection. The seed mice were rotated within the cages for 2 weeks and then removed. After the mice had developed a moderate infection level (approximately 5 weeks), the mice were divided into a negative-control group (control steroid), positive-control group (trimethoprim-sulfamethoxazole), and D13 group. Compound was solubilized in DMSO for a stock solution of 50 mg/ml. Compound was refrigerated before and after solubilization. Stock solution was diluted in PBS to a final concentration of 1.8 mg/ml. Mice were intraperitoneally (i.p.) injected with 100 μl of diluted stock for a total dose of approximately 180 μg/day or 7.2 mg/kg/day based on average mouse weights of 25 g. […] Slides were made from the lung homogenates at different dilutions and stained with Diff-Quik to quantify the trophic forms and cresyl echt violet to quantify the asci. Efficacy is based on the reduction of organism burden between the treatment groups and the negative-control group as determined by microscopic evaluation.

[5] = human, with NADPH
Description: as §2

Candida krusei = assay: Synergistic assay (FIC), CK Flu R1; format: cell-based; conditions: Pichia kudriavzevii
Description: as §1

Candida albicans A39 = assay: Synergistic assay (FIC), CA; format: cell-based
Description: as §1

Candida krusei ATCC 6258 = assay: Synergistic assay (FIC), CK Flu R2; format: cell-based; conditions: Pichia kudriavzevii, ATCC6258
Description: as §1

Row | Structure (SMILES) | time up to which detected in plasma ([1]; i.p. administration) | time up to which detected in plasma ([1]; i.v. injection) | plasma concentration ([1]; i.v., reached within the first hour and remained for about 8 h) | mice that survived (C. albicans) | K100* (C. neoformans) | MIC (Candida albicans 3022; Candida albicans, 3022, CA Flu-R) | FIC score (Candida albicans 3022; D13 combined with itraconazole, C. albicans clinical isolates resistant to fluconazole) | % remaining at 60 min [2] | MIC [3] | MIC [4] | number of asci or nuclei in lung homogenates (P. murina; untreated versus treated mice) | survival (P. murina; versus negative control) | % remaining at 60 min [5] | MIC (Candida krusei) | MIC (Candida albicans A39) | MIC (Candida krusei ATCC 6258)
1 | Cc1ccccc1C(=O)N/N=C/c1cc(Br)ccc1O [BHBM, (E)-N′-(3-bromo-6-hydroxybenzylidene)-2-methylbenzohydrazide] | ≤ 4 h | 8 h | 10 ng/mL | 20% | >1 µg/mL |  |  |  |  |  |  |  |  |  |  | 
2 | O=C(N/N=C/c1cc(Br)cc(Br)c1O)c1ccc(Br)cc1 [D13] | ≥ 20 h |  |  | 20% | 0.5 µg/mL | > 1 µg/mL | 0.37 | 62.25% | 0.5 µg/mL | > 1 µg/mL | No differences | did not show better survival | 64.95% | > 1 µg/mL | > 1 µg/mL | > 1 µg/mL
